Results taken from patent EP0974351A2, “Medicament for preventing and treating gastrointestinal damage” (JOUVEINAL, priority 1998, dated 2000).

What was measured:
[1] = test system: handling responses following withdrawal of chronic ethanol treatment; test: Handling-induced behavior after ethanol withdrawal in mice; assay type: in vivo, Male albino mice of the outbred TO strain
Procedure: Male albino mice of the outbred TO strain (Bantin and Kingman, UK) were used in all studies. The weight ranged from 25 to 35 g, with no more than a 5 g range in any single experiment. The mice were housed, eight per cage, at 21°C ± 1°C, with 55 ± 10% relative humidity, and a 12-hour light/dark cycle with the light phase between 09:00 to 21:00. All mice received ad libitum access to tap water and standard laboratory chow (RM-1, Special Diet Services, UK) until their use in experiments or until their diet was replaced with a liquid diet.
Ethanol was administered in a liquid diet schedule. All mice received control diet for an initial 2-day period. Ethanol treated mice then received a diet containing 3.5% (v/v) ethanol/water for 2 days, followed by a diet containing 7% ethanol for a further 5 days. The average intake was 22 to 30 g/kg/day. Control groups were pair-fed a control diet, balanced isocalorifically to match the ethanol containing diet. There were no differences in the weights of the ethanol-treated and control mice at the end of the treatment periods. When mice were withdrawn from the ethanol (between 07:00 AM and 09:00 AM), they were provided with tap water until their use in experiments.
Gabapentin was dissolved in saline, the solution being made freshly each testing day. Intraperitoneal (i.p.) injections of either gabapentin, 10 mL/kg, or saline, were given immediately on withdrawal from the ethanol treatment, in the studies on the handling responses and 2 hours prior to measurement of audiogenic seizures. In the experiments using the elevated plus maze, gabapentin or saline was injected i.p. at 8 hours after the removal of the ethanol diet, and the mice placed on the plus maze 60 minutes after the injections. In the studies on motor co-ordination (ataxia) and on locomotor activity, gabapentin or saline was injected to ethanol-naive chow fed mice immediately before testing. Measurements were then made for 60 minutes for the ataxia study, and for 30 minutes in the case of the locomotor activity.
Following withdrawal from the ethanol treatment at 09:00 AM, ratings of handling-induced behavior were assessed by the same experimenter, on the same mice, every hour for a period of 12 hours after withdrawal from ethanol.
Each mouse was lifted gently by the tail and held for 3 seconds, 30 cm under an "Anglepoise lamp" with a 60-watt bulb. The animal was gently rotated and its ensuing behavior rated on a scale of 1 to 5 according to the criteria in Table 2. Groups of 15 mice were used in each of the treatment groups, and the data were calculated as medians with interquartile ranges. The data were also expressed as the area under the curve at 4 and 12 hours from the withdrawal of the ethanol treatment.
The results of the handling response ratings were compared by nonparametric two-way analysis of variance, designed for repeat measures on the same animal. The results of the area under the curve calculations were compared by the Mann-Whitney U-test. The convulsion incidence was analyzed by Fisher's exact probability test. The measurements from the elevated plus maze were subjected to one-way analysis of variance, followed by a Bonuferroni multiple comparison test, comparing all groups to the control group which received saline injections, and also both ethanol treated groups which received gabapentin to the ethanol treated group which received saline. The ataxia measurements were analyzed by the Mann-Whitney U-test and the locomotor activity by Student's t-test.

[2] = test system: Abdominal Response Induced by Rectal Distension; test: Abdominal response induced by rectal distension in rats (electromyography); assay type: in vivo, Male Wistar rats
Source text: The GABA analogs also have been evaluated for their ability to control and treat gastrointestinal disorders characterized as IBD and IBS. The assay utilized to evaluate the GABA analogs measures the effects of compound on lipopolysaccharide-induced delayed rectal allodynia in rats. Intraperitoneal (IP) injections of the endotoxin lipopolysaccharide (LPS) are known to induce long-lasting hyperalgesia in somatic pain models. The following assay was designed to evaluate the effect of IP injections of LPS on pain visceral threshold in an experimental model of rectal distension.
Male Wistar rats weighing 250 to 350 g were surgically prepared for electromyography, according to a previously described technique. Rats were anesthetized by i.p. injection of acepromazine and ketamine (Imalgene 1000, Rhöne-Mérieux, Lyon, France) at doses of 0.6 and 120 mg/kg, respectively. […] Electrodes were exteriorized on the back of the neck and protected by a glass tube attached to the skin. Animals were individually housed in polypropylene cages and kept in a temperature-controlled room (21°C). They were allowed free access to water and food (UAR pellets, Epinay, France).
Electromyographic recording began 5 days after surgery. The electrical activity of abdominal striated muscles was recorded with an electroencephalograph machine (Mini VIII, Alvar, Paris, France) using a short-time constant (0.03 sec) to remove low-frequency signals (<3 Hz) and a paper speed of 3.6 cm/minute.
Rats were placed in plastic tunnels (6 cm diameter; 25 cm length) where they could not move, escape or turn around, in order to prevent damage to the balloon. They are accustomized to this procedure for 3 or 4 days before rectal distension (RD) in order to minimize stress reaction during experiments. […] The balloon used for distension was an arterial embolectomy catheter (Fogarty, Edwards Laboratories, Inc., Santa Ana, USA). RD was performed by insertion of the balloon (2-mm diameter; 2-cm long) in the rectum, at 1 cm of the anus, the catheter being fixed at the tail. It was inflated progressively by step of 0.4 mL, from 0 to 1.6 mL, each step of inflation lasting 5 minutes. To detect possible leakage, the volume of water introduced in the balloon was checked by complete removal with a syringe at the end of the distension period.
In a first series of experiments, a group of 89 rats were submitted to gradual rectal distention. The animals were previously (30 minutes) treated by gabapentin at doses of 30 and 100 mg/kg IP or its vehicle ([…]).
Statistical analysis of the number of abdominal contractions occurring during each 5-minute period during RD was performed by one-way ANOVA followed by Student's paired t-test. Values were expressed as the mean ± SEM, and differences were considered significant for p <0.05.

NCC1(CC(=O)O)CCCCC1 [Gabapentin, 1-(aminomethyl)-cyclohexane acetic acid]
area under the handling curve for the first 4 hours ([1]; gabapentin 20 mg/kg i.p., p <0.05): significant effects
area under the handling curve for the first 4 hours ([1]; gabapentin 50 mg/kg i.p., p <0.05): significant effects
duration of marked reduction in handling scores ([1]; gabapentin 100 mg/kg i.p.): around 4 hours
ratings of behavior in response to gentle handling over the 12-hour testing period ([1]; gabapentin 100 mg/kg i.p. on withdrawal from ethanol, p <0.001): significantly reduced
area under the handling curve for the first 4 hours ([1]; gabapentin 100 mg/kg i.p., p <0.01): significant effects
ratings of behavior in response to gentle handling over the 12-hour period of measurement ([1]; lower doses of gabapentin (below 100 mg/kg) i.p. on withdrawal from ethanol): not significant
Number of abdominal contractions/5 minutes ([2]; Gabapentin 30 mg/kg IP 30 min before, volume of distension 0.4mL, vehicle 4.4 ± 1.6, mean ± SEM): 5.0 ± 2.1 abdominal contractions/5 minutes
% of reduction vs vehicle ([2]; Gabapentin 30 mg/kg IP, volume of distension 0.8 mL): -45%
Number of abdominal contractions/5 minutes ([2]; Gabapentin 30 mg/kg IP, volume of distension 0.8 mL, vehicle 19.1 ± 2.8, p <0.01): 10.6 ± 3.4 abdominal contractions/5 minutes
% of reduction vs vehicle ([2]; Gabapentin 30 mg/kg IP, volume of distension 1.2 mL): -31.2%
Number of abdominal contractions/5 minutes ([2]; Gabapentin 30 mg/kg IP, volume of distension 1.2 mL, vehicle 23.4 ± 2.6, p <0.05): 16.1 ± 2.3 abdominal contractions/5 minutes
Number of abdominal contractions/5 minutes ([2]; Gabapentin 100 mg/kg IP, volume of distension 0.4mL, vehicle 3.9 ± 1.8): 2.0 ± 1.4 abdominal contractions/5 minutes
% of reduction vs vehicle ([2]; Gabapentin 100 mg/kg IP, volume of distension 0.8 mL): -61.2%
Number of abdominal contractions/5 minutes ([2]; Gabapentin 100 mg/kg IP, volume of distension 0.8 mL, vehicle 19.6 ± 2.3, p <0.01): 7.6 ± 3.4 abdominal contractions/5 minutes
Number of abdominal contractions/5 minutes ([2]; Gabapentin 100 mg/kg IP, volume of distension 1.2 mL, vehicle 19.1 ± 2.3): 16.7 ± 2.9 abdominal contractions/5 minutes
